Test results published in BindingDB's records for doi:10.1021/jm301365e (Sichuan University, 2012).

Molecular target: Tyrosine-protein kinase SYK (Homo sapiens) (UniProt P43405)
Test: Inhibition of human recombinant SYK by radiometric kinase assay

IC50: 0.72 µM
SMILES: CN1CCN(c2ccc(Nc3ncc4nc(Nc5ccccc5)n(C5CCCC5)c4n3)cc2)CC1
